Patent US20240025906A1 (NEURON23, INC., priority 2022, published 2024)

Each compound was assayed against T1, TYK2 JH2 (Homo sapiens, UniProt P29597) (assay: TYK2 JH2 binding assay (KINOMEscan KdELECT competitive binding)). Conditions: TYK2 JH2 domain, DiscoverX KINOMEscan KdELECT (Assay A); read-out: Biochemical TYK2_DiscoverX_JH2_BND_Kd.
T1 construct: purchased DiscoverX (KINOMEscan KdELECT service); host or cells: E. coli BL21-derived (T7 phage display) or HEK-293
Protocol: Assay A: TYK2 JH2 Binding Assay
Competitive binding studies using TKY2 JH2-domain fragments were conducted by DiscoverX using the KINOMEscan (KdELECT) platform. Kinase-tagged T7 phage strains were prepared in an E. coli host derived from the BL21 strain. E. coli were grown to log-phase and infected with […] and incubated with shaking at 32° C. until lysis. The lysates were centrifuged and filtered to remove cell debris. The remaining kinases were produced in HEK-293 cells and subsequently tagged with DNA for qPCR detection. Streptavidin-coated magnetic beads were treated with biotinylated small molecule ligands for 30 minutes at room temperature to generate affinity resins for kinase assays. The liganded beads were blocked with excess biotin and washed with blocking buffer (SeaBlock (Pierce), 1% BSA, 0.05% Tween 20, 1 mM DTT) to remove unbound ligand and to reduce non-specific binding. Binding reactions were assembled by combining kinases, liganded affinity beads, and test compounds in 1× binding buffer (20% SeaBlock, 0.17×PBS, 0.05% Tween 20, 6 mM DTT). Test compounds were prepared as 111× stocks in 100% DMSO. Kds were determined using an 11-point 3-fold compound dilution series with three DMSO control points. All compounds for Kd measurements are distributed by acoustic transfer (non-contact dispensing) in 100% DMSO. The compounds were then diluted directly into the assays such that the final concentration of DMSO was 0.9%. All reactions performed in polypropylene 384-well plate. Each was a final volume of 0.02 ml. The assay plates were incubated at room temperature with shaking for 1 hour and the affinity beads were washed with wash buffer (1×PBS, 0.05% Tween 20). The beads were then re-suspended in elution buffer (1×PBS, 0.05% Tween 20, 0.5 μM non-biotinylated affinity ligand) and incubated at room temperature with shaking for 30 minutes. The kinase concentration in the eluates was measured by qPCR.

T1 sequence (P29597 589-875 limits assumed): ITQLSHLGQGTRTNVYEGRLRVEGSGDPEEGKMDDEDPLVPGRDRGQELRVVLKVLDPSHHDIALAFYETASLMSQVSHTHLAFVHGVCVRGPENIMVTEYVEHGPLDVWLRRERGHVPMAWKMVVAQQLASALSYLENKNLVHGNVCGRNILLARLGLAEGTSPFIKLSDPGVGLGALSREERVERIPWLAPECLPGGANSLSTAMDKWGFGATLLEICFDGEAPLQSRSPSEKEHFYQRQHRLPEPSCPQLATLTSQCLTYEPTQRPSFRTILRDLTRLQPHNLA

Question: Which Kd does the source give for `CCOC(=O)[C@H]1C[C@@H]1C(=O)Nc1cc2c(-c3nc4cc(OC)ccc4o3)cnc(NC)c2cn1` (racemic) [Example 392, ethyl 2-((5-(5-methoxybenzo[d]oxazol-2-y1)-8-(methylamino)-2,7-naphthyridin-3-yl)carbamoyl)cyclopropane-1-carboxylate] here?
Answer: The Kd was no more than 100 nM.

Question: `CNc1ncc(-c2nc3cc(OCc4ccccc4)ccc3o2)c2cc(Nc3ccc(OCc4ccccc4)cn3)ncc12` [Example 430, 4-(5-(benzyloxy)benzo[d]oxazol-2-yl)-N^6-(5-(benzyloxy)pyridin-2-yl)-N^1-methyl-2,7-naphthyridine-1,6-diamine] was tested. Which Kd did it give?
Answer: The Kd was 100 to 1000 nM.

Same assay, conditions: TYK2 JH2 domain, KINOMEscan KdELECT (Assay A); read-out: Biochemical TYK2_DiscoverX_JH2_BND_Kd

Question: With `CNc1ncc(-c2noc(C)n2)c2cc(NC(=O)C3CC3)ncc12` [Example 837, N-(5-(5-methyl-1,2,4-oxadiazol-3-yl)-8-(methylamino)-2,7-naphthyridin-3-yl)cyclopropanecarboxamide] as the compound, how does the Kd read?
Answer: The Kd was no more than 100 nM.

Question: For `CNc1ncc(CCc2cccc(S(C)(=O)=O)c2)c2cc(NC(=O)C3CC3)ncc12` [Example 838, N-(8-(methylamino)-5-(3-(methylsulfonyl)phenethyl)-2,7-naphthyridin-3-yl)cyclopropanecarboxamide], which Kd is on record?
Answer: Its Kd is no more than 100 nM.

Question: With `CNc1ncc(C(=O)N2CCCC2)c2cc(NC(=O)C3CC3)ncc12` [Example 840, N-(8-(methylamino)-5-(pyrrolidine-1-carbonyl)-2,7-naphthyridin-3-yl)cyclopropanecarboxamide] as the compound, how does the Kd read?
Answer: Its Kd is 100 to 1000 nM.

Question: With `CNc1ncc(-c2nnc3n2CCC3)c2cc(NC(=O)C3CC3)ncc12` [Example 854, N-(5-(6,7-dihydro-5H-pyrrolo[2,1-c][1,2,4]triazol-3-yl)-8-(methylamino)-2,7-naphthyridin-3-yl)cyclopropanecarboxamide] as the compound, how does the Kd read?
Answer: The Kd was 100 to 1000 nM.

Question: `CNc1ncc(-c2cccn3nc(Br)nc23)c2cc(NC(=O)C3CC3)ncc12` [Example 856, N-(5-(2-bromo-[1,2,4]triazolo[1,5-a]pyridin-8-yl)-8-(methylamino)-2,7-naphthyridin-3-yl)cyclopropanecarboxamide] was tested. Which Kd did it give?
Answer: The Kd was 100 to 1000 nM.

Same assay, conditions: TYK2 JH2 domain, KINOMEscan KdELECT (Assay A); read-out: Biochemical TYK2_JH2_Kd

Question: `CNc1ncc(N2CCCS2(=O)=O)c2cc(NC(=O)C3CC3)ncc12` [Example 58, N-(5-(1,1-dioxidoisothiazolidin-2-yl)-8-(methylamino)-2,7-naphthyridin-3-yl)cyclopropanecarboxamide] was tested. Which Kd did it give?
Answer: Its Kd is 100 to 1000 nM.

Question: How did the Kd turn out when `CNc1ncc(N2Cc3cnccc3C2=O)c2cc(NC(=O)C3CC3)ncc12` [Example 59, N-(8-(methylamino)-5-(1-oxo-1,3-dihydro-2H-pyrrolo[3,4-c]pyridin-2-yl)-2,7-naphthyridin-3-yl)cyclopropanecarboxamide] was run?
Answer: The Kd was 1000 to 10000 nM.

Question: With `CNc1ncc(-n2ccc(=O)cc2)c2cc(NC(=O)C3CC3)ncc12` [Example 60, N-(8-(methylamino)-5-(4-oxopyridin-1(4H)-yl)-2,7-naphthyridin-3-yl)cyclopropanecarboxamide] as the compound, how does the Kd read?
Answer: Its Kd is 100 to 1000 nM.

Question: `CNc1ncc(-n2ccccc2=O)c2cc(NC(=O)C3CC3)ncc12` [Example 61, N-(8-(methylamino)-5-(2-oxopyridin-1(2H)-yl)-2,7-naphthyridin-3-yl)cyclopropanecarboxamide] was tested. Which Kd did it give?
Answer: Its Kd is 1000 to 10000 nM.

Question: `CNc1ncc(Oc2ccccn2)c2cc(NC(=O)C3CC3)ncc12` [Example 62, N-(8-(methylamino)-5-(pyridin-2-yloxy)-2,7-naphthyridin-3-yl)cyclopropanecarboxamide] was tested. Which Kd did it give?
Answer: Its Kd is no more than 100 nM.

Question: For `CNc1ncc(-c2ccccc2)c2cc(NC3COC3)ncc12` [Example 97, N^1-methyl-N^6-(oxetan-3-yl)-4-phenyl-2,7-naphthyridine-1,6-diamine], which Kd is on record?
Answer: Its Kd is 100 to 1000 nM.

Question: With `CNc1ncc(-c2ccccc2)c2cc(NCc3ccccc3)ncc12` [Example 99, N^6-benzyl-N^1-methyl-4-phenyl-2,7-naphthyridine-1,6-diamine] as the compound, how does the Kd read?
Answer: Its Kd is 1000 to 10000 nM.

Question: Which Kd does the source give for `CNc1ncc(-c2ccccc2)c2cc(NCc3ccccn3)ncc12` [Example 100, N^1-methyl-4-phenyl-N^6-(pyridin-2-ylmethyl)-2,7-naphthyridine-1,6-diamine] here?
Answer: The Kd was 1000 to 10000 nM.

Question: With `CNc1ncc(-c2ccccc2)c2cc(Nc3ccccc3)ncc12` [Example 102] as the compound, how does the Kd read?
Answer: Its Kd is 100 to 1000 nM.

Question: How did the Kd turn out when `CNc1ncc(-c2cn(C)c3ncccc23)c2cc(NC(=O)C3CC3)ncc12` [Example 107, N-(5-(1-methyl-1H-pyrrolo[2,3-b]pyridin-3-yl)-8-(methylamino)-2,7-naphthyridin-3-yl)cyclopropanecarboxamide] was run?
Answer: Its Kd is no more than 100 nM.

Question: For `CNc1ncc(C(=O)N2CCC(Oc3ccccc3)CC2)c2cc(NC(=O)C3CC3)ncc12` [Example 121, N-(8-(methylamino)-5-(4-phenoxypiperidine-1-carbonyl)-2,7-naphthyridin-3-yl)cyclopropanecarboxamide], which Kd is on record?
Answer: Its Kd is 1000 to 10000 nM.

Question: How did the Kd turn out when `CNc1ncc(C(=O)N2CCCCC2)c2cc(NC(=O)C3CC3)ncc12` [Example 122, N-(8-(methylamino)-5-(piperidine-1-carbonyl)-2,7-naphthyridin-3-yl)cyclopropanecarboxamide] was run?
Answer: The Kd was 100 to 1000 nM.

Question: For `CNc1ncc(C(N)=O)c2cc(NC(=O)C3CC3)ncc12` [Example 123, 6-(cyclopropanecarboxamido)-1-(methylamino)-2,7-naphthyridine-4-carboxamide], which Kd is on record?
Answer: Its Kd is no more than 100 nM.

Question: For `CNc1ncc(-c2cc(-c3ccccc3)ns2)c2cc(NC(=O)C3CC3)ncc12` [Example 146, N-(8-(methylamino)-5-(3-phenylisothiazol-5-yl)-2,7-naphthyridin-3-yl)cyclopropanecarboxamide], which Kd is on record?
Answer: Its Kd is no more than 100 nM.

Question: How did the Kd turn out when `CSc1ncc(-c2ccccc2)c2cc(NC(=O)C3CC3)ncc12` [Example 159, N-(8-(methylthio)-5-phenyl-2,7-naphthyridin-3-yl)cyclopropanecarboxamide] was run?
Answer: The Kd was 100 to 1000 nM.

Question: `CNc1ncc(-c2nc3cc(OC)ccc3o2)c2cc(NC(=O)C3CC3)ncc12` [Example 182, N-(5-(5-methoxybenzo[d]oxazol-2-yl)-8-(methylamino)-2,7-naphthyridin-3-yl)cyclopropanecarboxamide] was tested. Which Kd did it give?
Answer: Its Kd is no more than 100 nM.

Question: `CNc1ncc(-c2nc3cccc(F)c3o2)c2cc(NC(=O)C3CC3)ncc12` [Example 185, N-(5-(7-fluorobenzo[d]oxazol-2-yl)-8-(methylamino)-2,7-naphthyridin-3-yl)cyclopropanecarboxamide] was tested. Which Kd did it give?
Answer: The Kd was no more than 100 nM.

Question: Which Kd does the source give for `CNc1ncc(-c2nc3cc(N4CC(F)(F)C4)ccn3n2)c2cc(NC(=O)C3CC3)ncc12` [Example 189, N-(5-(7-(3,3-difluoroazetidin-1-yl)-[1,2,4]triazolo[1,5-a]pyridin-2-yl)-8-(methylamino)-2,7-naphthyridin-3-yl)cyclopropanecarboxamide] here?
Answer: Its Kd is no more than 100 nM.

Question: `CNc1ncc(-c2nc3cc(N4CCCC(N5CC(F)(F)C5)C4)ccn3n2)c2cc(NC(=O)C3CC3)ncc12` (stereo not drawn) [Example 190, N-(5-(7-(3-(3,3-difluoroazetidin-1-yl)piperidin-1-yl)-[1,2,4]triazolo[1,5-a]pyridin-2-yl)-8-(methylamino)-2,7-naphthyridin-3-yl)cyclopropanecarboxamide] was tested. Which Kd did it give?
Answer: Its Kd is no more than 100 nM.

Question: With `CNc1ncc(-c2nc3ccc(F)cn3n2)c2cc(NC(=O)C3CC3)ncc12` [Example 191, N-(5-(6-fluoro-[1,2,4]triazolo[1,5-a]pyridin-2-yl)-8-(methylamino)-2,7-naphthyridin-3-yl)cyclopropanecarboxamide] as the compound, how does the Kd read?
Answer: The Kd was no more than 100 nM.

Question: With `CNc1ncc(-c2nc3cccc(F)n3n2)c2cc(NC(=O)C3CC3)ncc12` [Example 192, N-(5-(5-fluoro-[1,2,4]triazolo[1,5-a]pyridin-2-yl)-8-(methylamino)-2,7-naphthyridin-3-yl)cyclopropanecarboxamide] as the compound, how does the Kd read?
Answer: Its Kd is no more than 100 nM.

Question: Which Kd does the source give for `CNc1ncc(-c2nc3c(F)cccn3n2)c2cc(NC(=O)C3CC3)ncc12` [Example 193, N-(5-(8-fluoro-[1,2,4]triazolo[1,5-a]pyridin-2-yl)-8-(methylamino)-2,7-naphthyridin-3-yl)cyclopropanecarboxamide] here?
Answer: Its Kd is no more than 100 nM.

Question: How did the Kd turn out when `CNc1ncc(-c2nc3cc(F)ccn3n2)c2cc(NC(=O)C3CC3)ncc12` [Example 194, N-(5-(7-fluoro-[1,2,4]triazolo[1,5-a]pyridin-2-yl)-8-(methylamino)-2,7-naphthyridin-3-yl)cyclopropanecarboxamide] was run?
Answer: The Kd was no more than 100 nM.
